The supplement of paper PMC10307832

Legend:
Test in all cases: relative viability (nuclei count vs DMSO), 5 days (fraction); higher = more cells survive
TGX 221 + Olaparib = compound: CC1=CN2C(=O)C=C(N=C2C(=C1)C(C)NC3=CC=CC=C3)N4CCOCC4 [TGX 221] + O=C(c1cc(Cc2n[nH]c(=O)c3ccccc23)ccc1F)N1CCN(C(=O)C2CC2)CC1 [Olaparib] (partner 8 µM)
Method in brief: (§1)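 Relative viability divides the nuclei count in treated wells by that in vehicle wells. Lung cancer cell lines were seeded in 1536-well plates, dosed by pin tool the next day, and fixed and stained after 5 days in one step with final 0.05% Triton X-100, 1% formaldehyde and 1 ug/ml Hoechst. Dosing was a single drug or a fixed anchor-drug dose plus five library-drug doses (not always all listed) in √10 steps, and values are medians of duplicate plates imaged at 4×.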

TGX 221 + Lapatinib = compound: CC1=CN2C(=O)C=C(N=C2C(=C1)C(C)NC3=CC=CC=C3)N4CCOCC4 [TGX 221] + CS(=O)(=O)CCNCc1ccc(-c2ccc3ncnc(Nc4ccc(OCc5cccc(F)c5)c(Cl)c4)c3c2)o1 [Lapatinib] (partner 2 µM)
Method in brief: as §1

[1] = compound: C1=CC=C(C(=C1)C2=CC=C(C=C2)C3=CSC4=C3C(=C(C(=O)N4)C#N)O)O + CS(=O)(=O)N1CCN(Cc2cc3nc(-c4cccc5[nH]ncc45)nc(N4CCOCC4)c3s2)CC1 [Pictilisib] (partner 1 µM)
Method in brief: as §1

[2] = compound: C1=CC=C(C(=C1)C2=CC=C(C=C2)C3=CSC4=C3C(=C(C(=O)N4)C#N)O)O + CC(=O)c1c(C)c2cnc(Nc3ccc(N4CCNCC4)cn3)nc2n(C2CCCC2)c1=O [Palbociclib] (partner 0.5 µM)
Method in brief: as §1

Cell Line | relative viability (TGX 221 + Olaparib; first compound 0.08 µM) | relative viability (TGX 221 + Olaparib; first compound 0.253 µM) | relative viability (TGX 221 + Olaparib; first compound 0.8 µM) | relative viability (TGX 221 + Olaparib; first compound 2.53 µM) | relative viability (TGX 221 + Olaparib; first compound 8 µM) | relative viability (TGX 221 + Lapatinib; first compound 0.08 µM) | relative viability (TGX 221 + Lapatinib; first compound 0.253 µM) | relative viability (TGX 221 + Lapatinib; first compound 0.8 µM) | relative viability (TGX 221 + Lapatinib; first compound 2.53 µM) | relative viability (TGX 221 + Lapatinib; first compound 8 µM) | relative viability ([1]; first compound 0.08 µM) | relative viability ([1]; first compound 0.253 µM) | relative viability ([1]; first compound 0.8 µM) | relative viability ([1]; first compound 2.53 µM) | relative viability ([1]; first compound 8 µM) | relative viability ([2]; first compound 0.08 µM) | relative viability ([2]; first compound 0.253 µM) | relative viability ([2]; first compound 0.8 µM) | relative viability ([2]; first compound 2.53 µM) | relative viability ([2]; first compound 8 µM)
HOP-62 | 0.408 | 0.435 | 0.536 | 0.707 | 0.585 | 1.15 | 0.987 | 1.09 | 1.02 | 0.912 | 0.774 | 0.773 | 0.673 | 0.837 | 0.434 | 0.545 | 0.536 | 0.497 | 0.532 | 0.382
LC-2-ad | 0.732 | 0.69 | 0.832 | 0.745 | 0.73 | 0.943 | – | 0.972 | 1.01 | 0.978 | 0.42 | 0.537 | 0.374 | 0.473 | 0.355 | 0.416 | 0.406 | 0.461 | 0.499 | 0.441
LCLC-97TM1 | 0.403 | 0.423 | 0.364 | 0.304 | 0.31 | 1.12 | 0.726 | 1.12 | 1.05 | 1.02 | 0.168 | 0.284 | 0.198 | 0.2 | 0.176 | 0.24 | 0.233 | 0.268 | 0.26 | 0.204
LK-2 | 0.65 | 0.752 | 0.551 | 0.632 | 0.862 | 0.853 | 0.891 | 0.887 | 0.915 | 1.01 | – | – | 0.507 | 0.656 | 0.514 | 0.515 | 0.749 | 0.629 | 0.913 | 0.517
LOU-NH91 | 0.95 | 0.904 | 0.892 | 0.951 | 0.783 | 0.71 | 0.814 | 0.751 | 0.728 | 0.739 | 0.482 | 0.538 | 0.51 | 0.515 | 0.512 | 0.501 | 0.542 | 0.535 | 0.544 | 0.534
LU99A | 0.251 | 0.258 | 0.297 | 0.251 | 0.249 | 0.957 | 0.865 | 0.939 | 1.01 | 0.913 | 0.283 | 0.307 | 0.339 | 0.332 | 0.295 | 0.389 | 0.371 | 0.44 | 0.469 | 0.392
LXF-289 | 1.02 | 1.03 | 1.09 | 1.03 | 1.11 | 0.933 | 0.889 | 0.955 | 0.904 | 0.885 | 0.677 | 0.831 | 0.781 | 0.81 | 0.779 | 0.612 | 0.595 | 0.681 | 0.629 | 0.675
NCI-H23 | 0.302 | 0.287 | 0.284 | 0.296 | 0.294 | 1.13 | 0.95 | 1.1 | 1.12 | 0.975 | 0.439 | 0.462 | 0.563 | 0.458 | 0.396 | 0.445 | 0.512 | 0.593 | 0.51 | 0.467
